{"source": "patent US12686846B2", "about": "“Plant sweet and yeast MSF transporter capable of transporting different sugars simultaneously” (THE BOARD OF TRUSTEES OF THE UNIVERSITY OF ILLINOIS, priority 2020, dated 2026)", "type_in_all_cases": "cell-based", "key": {"[1]": {"molecular_target": "T1, Arabidopsis thaliana AtSWEET7 transporter, wild type (Table 2: SEQ ID NO: 3; FIG. 12: SEQ ID NO:2) (Arabidopsis thaliana, UniProt Q8LBF7)", "T1 construct": "expressed in transfected cells; host or cells: S. cerevisiae SR8D8 (SR8 with HXT1-7 and GAL2 deleted), plasmid p42K-GPD1p-CYC1t", "T1 sequence (Q8LBF7 1-258)": "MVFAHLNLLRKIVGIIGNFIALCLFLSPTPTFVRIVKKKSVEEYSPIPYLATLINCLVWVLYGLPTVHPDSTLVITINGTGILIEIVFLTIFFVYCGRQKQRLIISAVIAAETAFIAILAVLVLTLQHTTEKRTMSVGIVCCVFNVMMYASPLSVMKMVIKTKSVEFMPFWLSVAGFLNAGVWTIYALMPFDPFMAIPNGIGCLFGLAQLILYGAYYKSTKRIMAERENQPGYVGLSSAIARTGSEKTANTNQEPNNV", "test": "Inhibition of xylose uptake by glucose, SR8D8 expressing AtSWEET7", "details": "25 mM and 100 mM glucose; in words", "protocol": "(§1) Symbols: glucose (square), xylose (triangle up), DCW (circle), ethanol (triangle down), glycerol (diamond). […] Global curve fitting for Michaelis-Menten kinetics with competitive inhibition was applied to data of three independent measurements at each concentration.\n(§2) SR8D8 containing the respective plasmid was grown on selective YPE medium to an OD600 of 1-1.5, harvested by centrifugation, and washed twice in ice-cold uptake buffer (100 mM potassium phosphate, pH 6.5). C14 labeled sugar uptake assay was done according to Boles and Oreb. Radioactivity was analyzed in a Beckman-Coulter LS6500 multi-purpose liquid scintillation counter (Beckman-Coulter, CA, USA).\n(§3) Sugar solutions contained 0.135-0.608 μCi of D-[U-^14C]-glucose (290-300 mCi/mmol) or D-[1-^14C]-xylose (55 mCi/mmol) (PerkinElmer, MA, USA). Calculation of Km (Michaelis constant), Vmax (maximal initial uptake velocity), and K (inhibitor constant for competitive inhibition) was done by nonlinear regression analysis and global curve fitting in Prism 7 (GraphPad Software) with values of three independent measurements."}, "[2]": {"molecular_target": "T2, Arabidopsis thaliana AtSWEET1 transporter, wild type, SEQ ID NO: 1 (Arabidopsis thaliana, UniProt Q8L9J7)", "T2 construct": "whole-cell 14C sugar uptake", "T2 sequence (Q8L9J7 1-247)": "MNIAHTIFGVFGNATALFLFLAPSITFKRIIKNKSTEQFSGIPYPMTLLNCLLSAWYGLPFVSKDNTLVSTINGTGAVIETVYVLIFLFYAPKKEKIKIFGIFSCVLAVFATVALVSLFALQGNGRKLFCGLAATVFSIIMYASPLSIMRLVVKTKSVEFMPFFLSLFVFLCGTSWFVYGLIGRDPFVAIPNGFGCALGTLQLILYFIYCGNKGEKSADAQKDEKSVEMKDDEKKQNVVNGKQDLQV", "test": "C14 labeled sugar uptake assay, SR8D8 expressing AtSWEET1", "details": "in words; FIGS. 7B and 7D legend: FIG. 7G", "protocol": "FIG. 7A illustrates sugar uptake kinetics by SR8D8. FIG. 7B illustrates sugar uptake kinetics by SR8D8 expressing AtSWEET1. FIG. 7C illustrates sugar uptake kinetics by SR8D8 expressing ScGal2. FIG. 7D illustrates sugar uptake kinetics by SR8D8 expressing AtSWEET7. FIG. 7E illustrates sugar uptake kinetics by SR8D8 expressing LST1_205437. Initial xylose uptake (20 s) was measured at 30° C. over a concentration range of 1 to 500 mM xylose. FIG. 7F illustrates sugar uptake kinetics by SR8D8. FIG. 7G illustrates sugar uptake kinetics by SR8D8 expressing AtSWEET1. FIG. 7H illustrates sugar uptake kinetics by SR8D8 expressing ScGal2. FIG. 7I illustrates sugar uptake kinetics by SR8D8 expressing AtSWEET7. FIG. 7J illustrates sugar uptake kinetics by SR8D8 expressing LST1_205437. Initial glucose uptake (5 s) was measured at 30° C. over a concentration range of 0.2 to 100 mM glucose. […]\nA xylose fermenting S. cerevisiae yeast (SR8) with HXT1-7Δ, GAL2Δ deletions was used for transporter screening and characterization (SR8D8). […] Biomass was calculated from the OD600 measured using a Biomate 5 UV-visible spectrophotometer (Fisher, NY, USA). All growth rates were measured using a Bioscreen C plate reader system (Growth Curves USA, Piscataway, NJ, USA). […]\nUptake was measured at sugar concentrations 0.2, 1, 5, 25, and 100 mM for glucose and 1, 5, 25, 66, 100, 200, and 500 mM for xylose. […]"}, "[3]": {"molecular_target": "T3, Saccharomyces cerevisiae ScGal2 (Gal2) transporter, SEQ ID NO:32 (Saccharomyces cerevisiae, UniProt P13181)", "T3 construct": "expressed in transfected cells; host or cells: S. cerevisiae SR8D8 (SR8 with HXT1-7 and GAL2 deleted), plasmid p42K-GPD1p-CYC1t", "T3 sequence (P13181 1-574)": "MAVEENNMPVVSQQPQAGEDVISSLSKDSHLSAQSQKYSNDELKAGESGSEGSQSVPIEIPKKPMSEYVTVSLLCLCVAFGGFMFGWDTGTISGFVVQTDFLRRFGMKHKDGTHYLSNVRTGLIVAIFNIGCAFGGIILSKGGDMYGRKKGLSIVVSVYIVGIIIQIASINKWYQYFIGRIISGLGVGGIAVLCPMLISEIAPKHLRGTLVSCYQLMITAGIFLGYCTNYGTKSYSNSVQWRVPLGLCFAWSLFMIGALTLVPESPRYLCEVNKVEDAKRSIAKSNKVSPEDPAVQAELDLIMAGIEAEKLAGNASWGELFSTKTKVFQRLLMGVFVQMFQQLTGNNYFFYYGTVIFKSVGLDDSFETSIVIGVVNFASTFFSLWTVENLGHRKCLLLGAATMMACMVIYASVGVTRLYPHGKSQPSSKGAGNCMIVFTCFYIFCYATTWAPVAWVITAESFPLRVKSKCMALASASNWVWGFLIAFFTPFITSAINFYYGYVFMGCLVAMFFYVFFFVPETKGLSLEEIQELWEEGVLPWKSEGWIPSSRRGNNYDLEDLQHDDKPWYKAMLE", "test": "Inhibition of xylose uptake by glucose, SR8D8 expressing ScGal2", "details": "in words", "protocol": "as §1, §2, §3"}}, "note": "Entries after “also recorded” stand apart in the source; their conditions may differ."}
{"smiles": "OC[C@H]1OC(O)[C@H](O)[C@@H](O)[C@@H]1O", "note": "(stereo partly shown) [Glucose]", "values": [{"measurement": "inhibition of xylose transport by glucose", "setting": "[1]", "result": "no inhibition of xylose transport by glucose; also recorded: do not have any xylose transport inhibition"}, {"measurement": "glucose transport kinetics", "setting": "[2]", "result": "transports glucose more efficiently as compared to AtSWEET7"}, {"measurement": "inhibition of xylose transport by glucose", "setting": "[3]; 25 mM glucose", "result": "complete xylose inhibition"}, {"measurement": "inhibition of xylose transport by glucose", "setting": "[3]; 25 mM or 100 mM glucose", "result": "completely inhibited"}]}
